Several values for one entry are separate records, joined by “and”; a condition that tells them apart may be missing. Equal values may be shown once. Read-outs that look alike come from different tables or passages of the source. Bridge positions count the residues as written; N and C are the ends. Square brackets hold non-standard residues; d marks the D form. Peptide text beside a SMILES is read from it. dOrn = NCCC[C@@H](N)C(=O)O
Tests used:
guinea pig ileum [1] = format: cell-based
Excerpt: […]. […] […]

guinea pig ileum [2] = conditions: for overall agonist character: conclusion of Example 7
mice [3] = test system: mice
κ receptors = κ receptors (Homo sapiens, UniProt P41145); conditions: cited from earlier work; for Ki: values obtained from (7) or (20), read-out: Receptor Binding Ki κ
Chain of κ receptors (P41145 whole entry): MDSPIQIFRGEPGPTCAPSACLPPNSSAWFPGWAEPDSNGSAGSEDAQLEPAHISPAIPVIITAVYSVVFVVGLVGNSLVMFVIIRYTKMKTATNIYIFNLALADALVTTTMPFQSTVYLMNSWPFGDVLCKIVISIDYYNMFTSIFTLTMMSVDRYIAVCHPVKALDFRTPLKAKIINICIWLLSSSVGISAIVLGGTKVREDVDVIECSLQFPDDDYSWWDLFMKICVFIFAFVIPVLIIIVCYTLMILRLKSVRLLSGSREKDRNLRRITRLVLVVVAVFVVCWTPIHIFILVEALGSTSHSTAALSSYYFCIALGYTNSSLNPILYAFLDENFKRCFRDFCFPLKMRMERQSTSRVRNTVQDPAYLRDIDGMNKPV

mice [4] = conditions: from reference (24); cited from earlier work
μ receptors [5] = target: T1, μ receptors (Homo sapiens, UniProt P35372); experiment: Binding to μ opiate receptors by inhibition of [3H]-DAMGO
T1 sequence (P35372 whole entry): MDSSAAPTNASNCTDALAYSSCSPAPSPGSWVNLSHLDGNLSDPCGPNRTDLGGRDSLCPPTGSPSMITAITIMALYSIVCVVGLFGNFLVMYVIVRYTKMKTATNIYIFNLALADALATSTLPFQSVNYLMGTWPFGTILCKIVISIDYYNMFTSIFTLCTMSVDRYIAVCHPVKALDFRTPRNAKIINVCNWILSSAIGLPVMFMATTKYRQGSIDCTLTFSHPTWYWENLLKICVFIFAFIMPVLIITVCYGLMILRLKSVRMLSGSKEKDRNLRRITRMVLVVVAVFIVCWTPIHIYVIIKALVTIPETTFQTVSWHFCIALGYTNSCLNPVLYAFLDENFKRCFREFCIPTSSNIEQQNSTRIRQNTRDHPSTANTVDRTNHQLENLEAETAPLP
Procedure: (§1) The relative affinity and selectivity for the μ receptor over the δ and κ receptors of the synthesized peptides were tested and compared.

δ receptors [6] = target: T2, δ receptors (Homo sapiens, UniProt P41143); experiment: Binding to δ opiate receptors by inhibition of 3H-pCl-DPDPE; conditions: FIG. 1 set of 20 pin-synthesized peptides
T2 sequence (P41143 whole entry): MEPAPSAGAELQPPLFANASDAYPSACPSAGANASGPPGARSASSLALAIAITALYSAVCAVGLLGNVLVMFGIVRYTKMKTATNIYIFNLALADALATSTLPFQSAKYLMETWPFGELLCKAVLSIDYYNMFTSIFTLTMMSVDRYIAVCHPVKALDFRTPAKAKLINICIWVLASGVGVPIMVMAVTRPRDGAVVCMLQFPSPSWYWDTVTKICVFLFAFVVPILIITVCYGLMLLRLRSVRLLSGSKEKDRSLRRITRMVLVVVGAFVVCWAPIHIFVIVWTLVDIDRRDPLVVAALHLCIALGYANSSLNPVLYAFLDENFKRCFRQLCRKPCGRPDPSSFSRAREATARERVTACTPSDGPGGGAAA
Procedure: as §1

μ receptors [7] = target: T1, μ receptors; conditions: values obtained from (7) or (20); read-out: Receptor Binding Ki μ; cited from earlier work
δ receptors [8] = target: T2, δ receptors; conditions: cited from earlier work
mice [9] = conditions: it injection
mice [10] = experiment: Analgesia in mice after IV injection; format: in vivo
[11] = mean±SEM, read-out: IC50 inhibiting electrically-induced contractions of the guinea pig ileum
[12] = untreated guinea pig ileum, read-out: agonist activity IC50 in the untreated ileum
[13] = methods of Example 3, route not given

In the case of `C[C@@H](NC(=O)[C@@H](N)Cc1ccc(O)cc1)C(=O)NCC(=O)N(C)[C@@H](Cc1ccccc1)C(=O)NCCO` [DAMGO, reference compound], the IC50 (guinea pig ileum [1]; [11]) is reported as 0.0068 ± 0.0008 µM and the “inhibition of electrically-induced contractions” value (guinea pig ileum [2]; 0.3 μM DAMGO, ileum treated with 20 nM B-CNA) is reported as 40%.

`NC(=O)[C@H](Cc1ccccc1)NC(=O)[C@H](Cc1ccccc1)NC(=O)[C@@H]1CCCN1C(=O)[C@@H](N)Cc1ccc(O)cc1` [SEQ ID NO:2, H-Tyr-Pro-Phe-Phe-NH2] showed an IC50 (guinea pig ileum [1]; [11]) of 0.004 ± 0.0004 µM and an ED50 analgesia (mice [3]; mice, icv injection) of 8.4 µg.

In the case of `CSCC[C@H](NC(=O)[C@H](Cc1ccccc1)NC(=O)CNC(=O)CNC(=O)[C@@H](N)Cc1ccc(O)cc1)C(=O)O` [Met-Enkephalin], the Ki (κ receptors) is listed as 4.44 µM, the ED50 analgesia (mice [4]) is listed as 75 µg and the “duration of analgesic effects” value (mice [4]) is listed as “less than 10 min”.

With `N[C@@H](Cc1ccc(O)cc1)C(=O)N1CCC[C@H]1C(=O)N[C@@H](Cc1c[nH]c2ccccc12)C(=O)N[C@@H](Cc1ccccc1)C(=O)O` [SEQ ID NO:3, H-Tyr-Pro-Trp-Phe-OH] the IC50 (guinea pig ileum [1]; [12]) was 5 µM, the “activity after treatment with 20 nM beta-chlornaltrexamine” value (guinea pig ileum [2]; B-CNA treated ileum) was “antagonist activity” and the overall agonist character (guinea pig ileum [2]) was “partial agonist activity”. For the same compound, the “inhibition of contractions by DAMGO after pretreatment with the peptide” value (guinea pig ileum [2]; peptide 20 μM 1 minute before 0.3 μM DAMGO, B-CNA treated ileum) was 25%.

In the case of `NC(=O)CNC(=O)[C@H](Cc1c[nH]c2ccccc12)NC(=O)[C@@H]1CCCN1C(=O)[C@@H](N)Cc1ccc(O)cc1` [Tyr-W-MIF-1, Tyr-Pro-Trp-Gly-NH2] (H-YPWG-NH2), the Ki (μ receptors [5]) is listed as 0.085 µM, the “selectivity for μ over δ receptors (δ Ki/μ Ki)” value (δ receptors [6]) is listed as 240 fold and the Ki (μ receptors [7]) is listed as 0.0709 µM and 0.07 µM. For the same compound, the “selectivity for μ over δ receptors” value (δ receptors [8]; background, reference (7)) was greater than 200 fold, the Ki (δ receptors [8]; values obtained from (7) or (20), read-out: Receptor Binding Ki δ) was 15.5 µM and the “Binding Selectivity δ/μ” value (δ receptors [8]; values obtained from (7)) was 219. For the same compound, the “selectivity for μ over κ receptors” value (κ receptors; background, reference (7)) was greater than 300 fold, the Ki (κ receptors) was 22.3 µM and the “Binding Selectivity κ/μ” value (κ receptors; values obtained from (7)) was 314.

With `N[C@@H](Cc1ccc(O)cc1)C(=O)N[C@@H]1CCCNC(=O)[C@H](Cc2ccccc2)NC(=O)[C@H](Cc2c[nH]c3ccccc23)NC1=O` [SEQ ID NO:15, H-Tyr-c-[D-Orn-Trp-Phe]] (H-Y[dOrn]WF; lactam 2-C) the “μ receptor affinity higher than the peptide of SEQ ID NO:1” value (μ receptors [5]) was “about 4 fold”.

For `NC(=O)[C@H](Cc1ccccc1)NC(=O)[C@H](Cc1c[nH]c2ccccc12)NC(=O)[C@@H]1CCCN1C(=O)[C@@H](N)Cc1ccc(O)cc1` [SEQ ID NO:1, H-Tyr-Pro-Trp-Phe-NH2], the IC50 (guinea pig ileum [1]; [11]) was 0.0036 ± 0.0003 µM, the “effect of antagonists on the peptide's effect in guinea pig ileum” value (guinea pig ileum [1]; naloxone 0.5 μM and CTOP 0.5 μM, applied 1 min before or after, not by nor-binaltorphimine 20 nM) was “blocked and reversed” and the “animals still analgesic 1 hr after injection” value (mice [3]; mice, 10-20 μg of the peptide, 1 hr) was “About half”. For the same compound, the “effect of antagonists on analgesia induced by 10 μg of the peptide” value (mice [3]; naloxone 1 mg/kg sc, β-funaltrexamine 40 mg/kg 24 h pretreatment) was “reversed” and the ED50 analgesia (mice [9]) was 0.8 µg.

For `N[C@@H](Cc1ccc(O)cc1)C(=O)N1CCC[C@H]1C(=O)N[C@@H](Cc1ccccc1)C(=O)N[C@@H](Cc1ccccc1)C(=O)O` [SEQ ID NO:4, H-Tyr-Pro-Phe-Phe-OH], the IC50 (guinea pig ileum [1]; [12]) was 20 µM, the “activity after treatment with 20 nM beta-chlornaltrexamine” value (guinea pig ileum [2]; B-CNA treated ileum) was “antagonist activity” and the overall agonist character (guinea pig ileum [2]) was “partial agonist activity”.

`CN1CC[C@]23c4c5ccc(O)c4O[C@H]2[C@@H](O)C=C[C@H]3[C@H]1C5` [morphine, reference compound] gave an ED50 (mice [10]; Mus musculus) of 0.3 µmol/kg.

For `N[C@@H](Cc1ccc(O)cc1)C(=O)N[C@@H]1CCCCNC(=O)[C@H](Cc2ccccc2)NC(=O)[C@H](Cc2c[nH]c3ccccc23)NC1=O` [SEQ ID NO:13, H-Tyr-c-[D-Lys-Trp-Phe]] (H-Y[dK]WF; lactam 2-C), the “μ receptor affinity higher than the peptide of SEQ ID NO:1” value (μ receptors [5]) was “about 15 fold”, the “IC50 in the guinea pig ileum assay (in words)” value (guinea pig ileum [1]) was “subnanomolar” and the “potency in the guinea pig ileum assay greater than SEQ ID NO:1” value (guinea pig ileum [1]) was “about 4 fold”. For the same compound, the ED50 analgesia (mice [10]) was 0.16 µmol/kg, the “analgesic potency IC50” value (mice [3]; [13]) was 0.3 µg and the “analgesic potency greater than SEQ ID NO:1” value (mice [3]; [13]) was “about 10 fold”.
